According to ChEMBL document CHEMBL6092185, “Discovery of glycosidated glycyrrhetinic acid derivatives: Natural product-based soluble epoxide hydrolase inhibitors” (Eur J Med Chem, 2024):

Tests used:
Mus musculus [1] = organism: Mus musculus; assay: animal or person; conditions: BALB/c, 6 h, read-out: INH
Description: Anti-inflammatory activity in BALB/c mouse model of Carrageenan-induced paw edema assessed as inhibition of edema at 5 mg/kg, ip measured upto 6 hrs relative to control

Mus musculus [2] = organism: Mus musculus; assay: animal or person; conditions: BALB/c, po, 6 h, read-out: INH
Description: Anti-inflammatory activity in BALB/c mouse model of Carrageenan-induced paw edema assessed as inhibition of edema at 20 mg/kg, IG measured upto 6 hrs relative to control

[3] = target: T1, Bifunctional epoxide hydrolase 2 (Mus musculus, UniProt P34914); assay: Inhibition of C57BL/6J mouse cortex sEH using 14,15-EET as substrate preincubated for 15 mins followed by substrate addition measured after 2 hrs by UPLC-MS/MS analysis
T1 sequence (P34914 whole entry): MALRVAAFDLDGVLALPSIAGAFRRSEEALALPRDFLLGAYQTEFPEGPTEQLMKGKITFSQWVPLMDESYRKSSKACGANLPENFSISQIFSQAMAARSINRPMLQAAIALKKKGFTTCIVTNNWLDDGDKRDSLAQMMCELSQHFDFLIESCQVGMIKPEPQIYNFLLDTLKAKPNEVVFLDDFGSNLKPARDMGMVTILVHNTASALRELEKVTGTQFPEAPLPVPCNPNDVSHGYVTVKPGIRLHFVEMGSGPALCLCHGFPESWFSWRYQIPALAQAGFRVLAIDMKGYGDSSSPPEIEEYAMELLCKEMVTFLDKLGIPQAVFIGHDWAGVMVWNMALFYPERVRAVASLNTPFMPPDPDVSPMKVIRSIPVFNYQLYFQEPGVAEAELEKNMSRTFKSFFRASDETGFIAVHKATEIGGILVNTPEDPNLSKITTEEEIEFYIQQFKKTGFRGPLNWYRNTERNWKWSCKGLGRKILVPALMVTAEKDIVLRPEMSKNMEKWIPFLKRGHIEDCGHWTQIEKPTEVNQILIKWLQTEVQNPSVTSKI

Mus musculus [4] = organism: Mus musculus; assay: animal or person; conditions: BALB/c, 2 h, read-out: INH
Description: Anti-inflammatory activity in BALB/c mouse model of Carrageenan-induced paw edema assessed as inhibition of edema at 5 mg/kg, ip measured after 2 hrs relative to control

Mus musculus [5] = organism: Mus musculus; assay: animal or person; conditions: BALB/c, 3 h, read-out: INH
Description: Anti-inflammatory activity in BALB/c mouse model of Carrageenan-induced paw edema assessed as inhibition of edema at 5 mg/kg, ip measured after 3 hrs relative to control

Mus musculus [6] = organism: Mus musculus; assay: animal or person; conditions: BALB/c, po, 1 h, read-out: INH
Description: Anti-inflammatory activity in BALB/c mouse model of Carrageenan-induced paw edema assessed as inhibition of edema at 20 mg/kg, IG measured after 1 hr relative to control

[7] = Cytotoxicity against human HepG2 cells incubated overnight by CCK8 assay
Mus musculus [8] = organism: Mus musculus; assay: animal or person; conditions: BALB/c, 4 h, read-out: INH
[9] = Cytotoxicity against HEK293T cells incubated overnight by CCK8 assay; conditions: human
in vivo [10] = conditions: BALB/c, mouse, liver/plasma, po, 20 mg/kg
Description: Ratio of AUC (0 to 24 hrs) in BALB/c mouse liver to plasma at 20 mg/kg, IG measured upto 24 hrs by LC-MS/MS analysis

in vivo [11] = conditions: BALB/c, mouse, plasma, po, 20 mg/kg
Description: Cmax in BALB/c mouse plasma at 20 mg/kg, IG measured upto 24 hrs by LC-MS/MS analysis

in vivo [12] = conditions: BALB/c, mouse, liver, po, 20 mg/kg
Description: Cmax in BALB/c mouse liver at 20 mg/kg, IG measured upto 24 hrs by LC-MS/MS analysis

in vivo [13] = conditions: BALB/c, mouse, plasma, po, 20 mg/kg; remark: listed apart in the source
Description: AUC (0 to 24 hrs) in BALB/c mouse plasma at 20 mg/kg, IG measured upto 24 hrs by LC-MS/MS analysis

in vivo [14] = conditions: BALB/c, mouse, liver/plasma, po, 20 mg/kg; remark: listed apart in the source
Description: Ratio of Cmax in BALB/c mouse liver to plasma at 20 mg/kg, IG measured upto 24 hrs by LC-MS/MS analysis

[15] = target: T2, Bifunctional epoxide hydrolase 2 (Homo sapiens, UniProt P34913); assay: Inhibition of sEH (unknown origin) using PHOME as substrate incubated for 1 hr by fluorimetric assay
T2 sequence (P34913 whole entry): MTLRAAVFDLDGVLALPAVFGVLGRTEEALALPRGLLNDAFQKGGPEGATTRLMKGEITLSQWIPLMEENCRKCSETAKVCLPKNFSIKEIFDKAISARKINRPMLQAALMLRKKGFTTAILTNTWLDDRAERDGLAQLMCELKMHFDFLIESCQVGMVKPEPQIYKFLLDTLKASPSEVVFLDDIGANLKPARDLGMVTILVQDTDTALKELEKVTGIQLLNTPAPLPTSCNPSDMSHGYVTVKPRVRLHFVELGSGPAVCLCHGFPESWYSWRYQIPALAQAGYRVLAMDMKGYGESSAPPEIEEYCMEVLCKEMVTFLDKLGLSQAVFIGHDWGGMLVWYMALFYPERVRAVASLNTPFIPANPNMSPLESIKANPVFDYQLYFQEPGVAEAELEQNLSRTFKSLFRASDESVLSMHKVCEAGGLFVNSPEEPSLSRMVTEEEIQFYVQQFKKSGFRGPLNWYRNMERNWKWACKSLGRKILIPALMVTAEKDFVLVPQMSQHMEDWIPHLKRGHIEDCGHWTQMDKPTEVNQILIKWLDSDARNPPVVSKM

CC[C@H](C)C(=O)N1CCC(NC(=O)Nc2ccc(OC(F)(F)F)c(F)c2)CC1
inhibition in vivo at 5 mg/kg (Mus musculus [1]): 39.2%

CC1(C)[C@@H](O[C@H]2OC[C@@H](O)[C@@H](O)[C@@H]2O)CC[C@]2(C)[C@H]3C(=O)C=C4[C@H]5C[C@@](C)(CNC(=O)NCC6CCOCC6)CC[C@]5(C)CC[C@@]4(C)[C@]3(C)CC[C@@H]12
inhibition in vivo at 20 mg/kg (Mus musculus [2]): 37.4%
IC50 [3]: 0.0861 µM

CC1(C)[C@@H](O[C@H]2O[C@H](CO)[C@@H](O)[C@H](O)[C@H]2O)CC[C@]2(C)[C@H]3C(=O)C=C4[C@H]5C[C@@](C)(CNC(=O)NCC6CCOCC6)CC[C@]5(C)CC[C@@]4(C)[C@]3(C)CC[C@@H]12
inhibition in vivo at 5 mg/kg (Mus musculus [1]): 40.3%
IC50 [3]: 0.442 µM

CC1(C)[C@@H](O[C@@H]2O[C@H](CO)[C@@H](O)[C@H](O)[C@H]2O)CC[C@]2(C)[C@H]3C(=O)C=C4[C@H]5C[C@@](C)(CNC(=O)NCC6CCOCC6)CC[C@]5(C)CC[C@@]4(C)[C@]3(C)CC[C@@H]12
inhibition in vivo at 5 mg/kg (Mus musculus [4]): 43.2%
inhibition in vivo at 5 mg/kg (Mus musculus [5]): 42.4%
IC50 [3]: 0.301 µM

CCC(=O)N1CCC(CNC(=O)NC[C@@]2(C)CC[C@]3(C)CC[C@]4(C)C(=CC(=O)[C@@H]5[C@@]6(C)CC[C@H](O[C@H]7O[C@H](CO)[C@@H](O)[C@H](O)[C@@H]7O)C(C)(C)[C@@H]6CC[C@]54C)[C@@H]3C2)CC1
inhibition in vivo at 20 mg/kg (Mus musculus [6]): 38.4%
IC50 [3]: 0.182 µM

CC1(C)[C@@H](O)CC[C@]2(C)[C@H]3C(=O)C=C4[C@H]5C[C@@](C)(CNC(=O)NCC6CCOCC6)CC[C@]5(C)CC[C@@]4(C)[C@]3(C)CC[C@@H]12
IC50 [7]: > 50 µM
inhibition in vivo at 20 mg/kg (Mus musculus [8]): 28.4%
IC50 [9]: > 50 µM
IC50 [3]: 0.0052 µM

CC1(C)[C@@H](O[C@H]2O[C@H](CO)[C@@H](O)[C@H](O)[C@@H]2O)CC[C@]2(C)[C@H]3C(=O)C=C4[C@H]5C[C@@](C)(CNC(=O)NCC6CCOCC6)CC[C@]5(C)CC[C@@]4(C)[C@]3(C)CC[C@@H]12
Kp at 24 h (in vivo [10]): 8.91
IC50 [7]: 17.6 µM
Cmax at 24 h (in vivo [11]): 194 ng/mL
Cmax at 24 h (in vivo [12]): 2140 ng/g
AUC(0-t) at 24 h (in vivo [13]): 655 ng·h/mL
IC50 [9]: 46.6 µM
IC50 [3]: 0.121 µM
Kp at 24 h (in vivo [14]): 11

C[C@H]1[C@H](C)CC[C@]2(C(=O)O)CC[C@]3(C)C(=CC[C@@H]4[C@@]5(C)CC[C@H](O)C(C)(C)[C@@H]5CC[C@]43C)[C@H]12 [URSOLIC ACID]
IC50 [15]: 11.1 µM
